The structures appear in SMILES notation.

By IC50 is commonly meant the concentration that gives 50% inhibition.

For one experiment, the target named is Mutant PI3Kα (H1047R) (Homo sapiens, UniProt P42336, H1047R). Briefly: In vitro enzymatic activity test, mutant PI3Kα (H1047R). The format is biochemical. The text has this:
(§1) The crystal form A of the compound represented by formula (I) has a strong inhibitory effect on both wild-type and mutant PI3Kα kinases. […] The crystal form A of the compound represented by formula (I) has excellent selectivity to the other three subtypes of PI3K, and its inhibitory activity against PI3Kα is 149/7.44/6.61 times higher than that of PI3Kβ/δ/γ, respectively. The specific experimental method was the same as experimental embodiment 8. […] The specific experimental method was the same as experimental embodiment 9.
(§2) The lipid kinase reaction was carried out in a suitable substrate and under ATP conditions, then the activity of the kinase was detected by ADP-Glo™ kit in two steps. Step 1: the kinase reaction was terminated, in which the residual ATP was completely removed and only ADP was retained; step 2: kinase detection reagent was added to convert ADP to ATP, accompanied by fluorescein/luciferase reaction. Finally, the fluorescence value output was converted into kinase activity.
(§3) Experimental Materials and Equipment:
(§4) 2) Kit: ADP-Glo™ lipid kinase and PIP2:3PS kit (Promega #V1792)
(§5) The reagent kit contains: 1 mM PIP2:3PS, 10× lipid dilution buffer, 1 M magnesium chloride, 10 mM ATP, 10 mM ADP, ADP-Glo reagent, detection buffer and detection substrate. […]
(§6) (16) Fluorescence values were measured on the Envision instrument.

In the next experiment the test system is MDA-MB-468. Briefly: Akt phosphorylation inhibition in MDA-MB-468 cells (high expression of PI3Kβ). It is filed as cell-based. The following applies: MDA-MB-468 cell line with high expression of PI3Kβ.
In the next experiment the test system is p-AKT. In words: Western blot analysis of p-AKT protein expression level in BT474 tumor tissue samples. It is filed as in vivo. Particulars: BT-474 nude mouse transplanted tumor model, 0.5 h, 4 h, 24 h after administration. As to the method:
7.1 Protein extraction and quantification
1) Quick-frozen tissue samples were taken out from the refrigerator at −80° C.
2) Operating on dry ice, cutting part of the tissues (about 30 mg), putting them into a 2 mL centrifuge tube with steel balls, and adding 500 μL of cell lysate RIPA (1% protease inhibitor and phosphatase inhibitor had been newly added).
3) Tissue was broken for 5 minutes using the highest frequency of Tissuelyser LT.
4) The tissue lysate was placed on ice for 30 minutes.
5) Centrifuging at 12,000 rpm at 4° C. for 10 minutes and removing the supernatant into a new 1.5 mL centrifuge tube.
6) The protein was quantified by BCA quantitative kit.
7) According to the quantitative results, the protein sample for loading was prepared, the protein concentration of the sample was unified to 2 μg/μL, LDS loading buffer (4×) and sample reducing agent (10×) were added, and the sample was heated at a constant temperature of 100° C. for 10 minutes.
8) Western blotting, or storing the denatured samples in a refrigerator at −80° C.
1) The sample for loading was thawed. […]
5) After the membrane transfer was finished, the membrane was cut according to the molecular weight of the protein to be detected, the membrane was washed with 1×TBST for 3 times and 5 minutes each time, and was shaken at room temperature. […]
13) Chemiluminescence was detected and photographed on the Tanon 5200 multi machine.
For orientation: Immunoblotting shows a protein as a band on a membrane.

The target of the next experiment is Mutant PI3Kα (E545K) (Homo sapiens, UniProt P42336, E545K). Briefly: In vitro enzymatic activity test, mutant PI3Kα (E545K). The format is biochemical.
From the text: as §1, §2, §3, §4, §5, §6

The next experiment has as its target T1, PI3Kα (Homo sapiens, UniProt P42336).
T1 construct: purchased Millipore 14-602-K
Briefly: In vitro enzymatic activity test (ADP-Glo lipid kinase), PI3Kα wild type. It is filed as biochemical. The following applies: wild-type PI3Kα kinase; read-out: Wild type PI3Kα IC50. Here is the method:
as §2, §3, §4
The reagent kit contains: 1 mM PIP2:3PS, 10× lipid dilution buffer, 1 M magnesium chloride, 10 mM ATP, 10 mM ADP, ADP-Glo reagent, detection buffer and detection substrate.
3) Reaction plate: OptiPlate-384, white and transparent (PerkinElmer #6007299)
1) 10× reaction buffer: 500 mM HEPES, pH 7.5, 500 mM NaCl, […]; BSA: 10% stock solution, self-made
2) Final test system conditions: 1× reaction system: 50 mM of HEPES, 50 mM of NaCl, 3 mM of MgCl2, 0.01% BSA (freshly prepared on the day of experiment), 1% DMSO (v/v)+/−compound
3) Reaction system: 3 μL of mixture of enzyme and substrate (1:1)+2 μL of ATP/MgCl2 mixture+5 μL of ADP-Glo reagent+10 μL of detection reagent.
The specific experimental operations were as follows: […]
as §6
(In general: ADP-Glo first removes unused ATP, then detects ADP through luciferase.)

T1 sequence (P42336 whole entry): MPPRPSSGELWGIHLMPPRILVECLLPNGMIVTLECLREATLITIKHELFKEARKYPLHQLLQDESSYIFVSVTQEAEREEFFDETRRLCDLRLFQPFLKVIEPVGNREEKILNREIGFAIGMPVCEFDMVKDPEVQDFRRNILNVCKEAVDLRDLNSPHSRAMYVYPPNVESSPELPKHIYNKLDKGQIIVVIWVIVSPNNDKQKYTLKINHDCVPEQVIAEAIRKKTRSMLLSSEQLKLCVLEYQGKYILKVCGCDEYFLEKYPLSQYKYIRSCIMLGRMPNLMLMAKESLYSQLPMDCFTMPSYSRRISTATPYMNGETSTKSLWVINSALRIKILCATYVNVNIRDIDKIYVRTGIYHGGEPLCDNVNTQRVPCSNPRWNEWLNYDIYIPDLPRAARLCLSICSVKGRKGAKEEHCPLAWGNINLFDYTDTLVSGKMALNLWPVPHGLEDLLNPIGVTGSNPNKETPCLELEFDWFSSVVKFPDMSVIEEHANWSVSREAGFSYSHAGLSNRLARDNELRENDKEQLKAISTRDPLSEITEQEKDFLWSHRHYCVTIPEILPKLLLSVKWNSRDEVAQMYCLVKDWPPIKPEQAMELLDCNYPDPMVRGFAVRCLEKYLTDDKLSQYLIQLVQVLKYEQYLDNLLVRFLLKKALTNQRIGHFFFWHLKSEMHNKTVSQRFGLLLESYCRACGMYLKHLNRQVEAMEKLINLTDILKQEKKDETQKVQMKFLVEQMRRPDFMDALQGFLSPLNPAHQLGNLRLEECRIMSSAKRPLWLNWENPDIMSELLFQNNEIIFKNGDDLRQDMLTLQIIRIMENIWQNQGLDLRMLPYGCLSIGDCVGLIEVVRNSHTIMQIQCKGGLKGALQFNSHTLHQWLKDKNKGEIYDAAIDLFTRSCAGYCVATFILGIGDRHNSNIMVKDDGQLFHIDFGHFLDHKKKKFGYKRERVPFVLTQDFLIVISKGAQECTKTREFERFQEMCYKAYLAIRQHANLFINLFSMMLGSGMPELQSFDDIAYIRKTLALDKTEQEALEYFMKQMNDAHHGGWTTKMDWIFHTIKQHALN
T1 sequence (P27986 whole entry partner): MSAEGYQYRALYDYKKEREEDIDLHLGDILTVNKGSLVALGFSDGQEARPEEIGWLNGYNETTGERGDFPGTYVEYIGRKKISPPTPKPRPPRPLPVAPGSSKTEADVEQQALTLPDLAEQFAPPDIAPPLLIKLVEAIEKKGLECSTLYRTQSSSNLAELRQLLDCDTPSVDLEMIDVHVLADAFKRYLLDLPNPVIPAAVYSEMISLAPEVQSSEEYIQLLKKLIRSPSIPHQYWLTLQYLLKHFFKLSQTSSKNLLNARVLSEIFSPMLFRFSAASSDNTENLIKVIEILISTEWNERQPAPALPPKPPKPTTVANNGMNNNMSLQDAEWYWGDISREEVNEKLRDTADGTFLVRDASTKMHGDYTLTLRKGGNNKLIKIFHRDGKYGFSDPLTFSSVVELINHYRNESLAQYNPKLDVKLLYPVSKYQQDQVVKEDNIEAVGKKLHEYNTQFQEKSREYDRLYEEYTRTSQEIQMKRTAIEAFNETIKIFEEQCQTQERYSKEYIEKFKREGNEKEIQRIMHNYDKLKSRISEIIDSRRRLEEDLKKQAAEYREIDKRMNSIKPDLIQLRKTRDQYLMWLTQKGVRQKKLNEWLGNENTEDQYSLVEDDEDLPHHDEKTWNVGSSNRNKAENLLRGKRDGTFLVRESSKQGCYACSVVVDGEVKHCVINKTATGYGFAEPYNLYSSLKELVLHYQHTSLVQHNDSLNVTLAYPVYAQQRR
Mutant PI3Kα (H1047R), sequence (P42336 whole entry H1047R): as the sequence (P42336 whole entry) above, with H1047R counted along it
Mutant PI3Kα (H1047R), sequence (P27986 whole entry partner): as the sequence (P27986 whole entry partner) above
Mutant PI3Kα (E545K), sequence (P42336 whole entry E545K): as the sequence (P42336 whole entry) above, with E545K counted along it
Mutant PI3Kα (E545K), sequence (P27986 whole entry partner): as the sequence (P27986 whole entry partner) above

On to `CNC(=O)[C@H](C)Cn1cnc2ccc(-c3cnc(OC)c(NS(=O)(=O)c4ccc(F)cc4F)c3)cc2c1=O`, for which the figures for the IC50 on Mutant PI3Kα (H1047R), on Mutant PI3Kα (E545K) and at PI3Kα were 0.69 nM, 1.13 nM and 1.8 nM, respectively. Moreover, the “Selectivity PI3Kα over PI3Kβ, Akt phosphorylation inhibitory activity in cells” value in the experiment with MDA-MB-468 was found to be 195 times. The “Akt phosphorylation level downstream of PI3K in tumor tissue (Western blot, FIG. 10)” value in the experiment on p-AKT is “significantly inhibit”.
